Broadly, the logP is a log measure of how a compound divides between an organic and an aqueous phase. Low readings indicate a more hydrophilic compound, high ones a more lipophilic compound.

The nature of the data set: log P determination by HPLC on reverse-phase column (EEC Directive 79/831 Annex V.A8). The class given is physicochemical. The method in brief: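 Log P was derived from retention times by linear interpolation between successive unbranched alkan-2-one standards (C3–C16). The standards and samples ran on a C18 reverse-phase column at 43 °C with a 10→95% acetonitrile gradient in 0.1% formic acid (pH 2.7). The method follows EEC Directive 79/831 Annex V.A8.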
In turn, `Cc1cc(C#N)cc(C(=O)NC2CC2)c1NC(=O)c1cc(Cn2nc(C(F)(F)F)cc2C(F)(F)F)nn1-c1ncccc1Cl` [I-1-188] displayed a logP of 3.56.

For `Cc1cc(C#N)cc(C(N)=O)c1NC(=O)c1cc(Cn2nc(C(F)(F)F)cc2C(F)(F)F)nn1-c1ncccc1Cl` [I-1-189], the logP turned out to be 3.15.

With `Cc1cc(C#N)cc(C(=O)NCC#N)c1NC(=O)c1cc(Cn2nc(C(F)(F)F)cc2C(F)(F)F)nn1-c1ncccc1Cl` [I-1-190], the logP is 3.28.

`Cc1cc(C#N)cc(C(=O)NC2CC2)c1NC(=O)c1cc(Cn2cc(C(F)(F)C(F)(F)F)c(C(F)(F)C(F)(F)F)n2)nn1-c1ncccc1Cl` [I-1-191] displayed a logP of 4.29.

Take `Cc1cc(C#N)cc(C(N)=O)c1NC(=O)c1cc(Cn2cc(C(F)(F)C(F)(F)F)c(C(F)(F)C(F)(F)F)n2)nn1-c1ncccc1Cl` [I-1-192]: the logP is 3.91.

`Cc1cc(C#N)cc(C(=O)NCC#N)c1NC(=O)c1cc(Cn2cc(C(F)(F)C(F)(F)F)c(C(F)(F)C(F)(F)F)n2)nn1-c1ncccc1Cl` [I-1-193] showed a logP of 4.04.

`CSCC(C)NC(=O)c1cc(F)cc(C)c1NC(=O)c1cc(Cn2cc(Cl)c(C(F)(F)C(F)(F)F)n2)nn1-c1ncccc1Cl` (centres unmarked) [I-1-195] showed a logP of 4.13. This logP and that of the molecule before are within 0.2 log units of each other.

`Cc1cc(F)cc(C(=O)NCc2ccco2)c1NC(=O)c1cc(Cn2cc(Cl)c(C(F)(F)C(F)(F)F)n2)nn1-c1ncccc1Cl` [I-1-196] came in with a logP of 3.90.

Turning to `Cc1cc(C#N)cc(C(=O)NC2C3CCCCC32)c1NC(=O)c1cc(Cn2cc(Cl)c(C(F)(F)C(F)(F)F)n2)nn1-c1ncccc1Cl` (centres unmarked) [I-1-197], the logP stood at 4.50.

With `Cc1cc(C#N)cc(C(=O)NC2CC2CO)c1NC(=O)c1cc(Cn2cc(Cl)c(C(F)(F)C(F)(F)F)n2)nn1-c1ncccc1Cl` (centres unmarked) [I-1-198], the logP was 3.11.

`Cc1cc(F)cc(C(=O)NC2C3CCCCC32)c1NC(=O)c1cc(Cn2cc(Cl)c(C(F)(F)C(F)(F)F)n2)nn1-c1ncccc1Cl` (centres unmarked) [I-1-199] displayed a logP of 4.55.

For `Cc1cc(Cl)cc(C(=O)NCc2ccco2)c1NC(=O)c1cc(Cn2cc(Cl)c(C(F)(F)C(F)(F)F)n2)nn1-c1ncccc1Cl` [I-1-201], the logP is 4.21.

`Cc1cc(Cl)cc(C(=O)NC2CCCC2N)c1NC(=O)c1cc(Cn2cc(Cl)c(C(F)(F)C(F)(F)F)n2)nn1-c1ncccc1Cl` (centres unmarked) [I-1-202] came in with a logP of 2.30.

The molecule `Cc1cc(F)cc(C(=O)NC2CC2CO)c1NC(=O)c1cc(Cn2cc(Cl)c(C(F)(F)C(F)(F)F)n2)nn1-c1ncccc1Cl` (centres unmarked) [I-1-203] returned a logP of 3.14.

As for `Cc1cc(F)cc(C(=O)NC(C)CS(C)(=O)=O)c1NC(=O)c1cc(Cn2cc(Cl)c(C(F)(F)C(F)(F)F)n2)nn1-c1ncccc1Cl` (centres unmarked) [I-1-204], the logP came to 3.34.

As to `Cc1cc(Cl)cc(C(=O)NC2C3CCCCC32)c1NC(=O)c1cc(Cn2cc(Cl)c(C(F)(F)C(F)(F)F)n2)nn1-c1ncccc1Cl` (centres unmarked) [I-1-205], the logP is listed as 4.88.

`CSCC(C)NC(=O)c1cc(Cl)cc(C)c1NC(=O)c1cc(Cn2cc(Cl)c(C(F)(F)C(F)(F)F)n2)nn1-c1ncccc1Cl` (centres unmarked) [I-1-206] returned a logP of 4.41.

As for `Cc1cc(Cl)cc(C(=O)NC2CC2CO)c1NC(=O)c1cc(Cn2cc(Cl)c(C(F)(F)C(F)(F)F)n2)nn1-c1ncccc1Cl` (centres unmarked) [I-1-207], the logP was 3.37.

Take `Cc1cc(C#N)cc(C(=O)NCc2ccco2)c1NC(=O)c1cc(Cn2cc(Cl)c(C(F)(F)C(F)(F)F)n2)nn1-c1ncccc1Cl` [I-1-208]: the logP was determined as 3.90.

For the molecule `CSCC(C)NC(=O)c1cc(C#N)cc(C)c1NC(=O)c1cc(Cn2cc(Cl)c(C(F)(F)C(F)(F)F)n2)nn1-c1ncccc1Cl` (centres unmarked) [I-1-209], the logP was 4.05. The logP values of the last two molecules are within 0.2 log units of each other.

`Cc1cc(C#N)cc(C(=O)NC(C)CS(C)(=O)=O)c1NC(=O)c1cc(Cn2cc(Cl)c(C(F)(F)C(F)(F)F)n2)nn1-c1ncccc1Cl` (centres unmarked) [I-1-210] returned a logP of 3.34.

The molecule `Cc1cc(C#N)cc(C(=O)NC(C)C[S+](C)[O-])c1NC(=O)c1cc(Cn2cc(Cl)c(C(F)(F)C(F)(F)F)n2)nn1-c1ncccc1Cl` (centres unmarked) [I-1-211] gave a logP of 3.02.

On to `Cc1cc(Cl)cc(C(=O)NC(C)C[S+](C)[O-])c1NC(=O)c1cc(Cn2cc(Cl)c(C(F)(F)C(F)(F)F)n2)nn1-c1ncccc1Cl` (centres unmarked) [I-1-212], for which the logP is given as 3.25.

For `Cc1cc(Cl)cc(C(=O)NC(C)CS(C)(=O)=O)c1NC(=O)c1cc(Cn2cc(Cl)c(C(F)(F)C(F)(F)F)n2)nn1-c1ncccc1Cl` (centres unmarked) [I-1-213], the logP worked out at 3.60.

Regarding `Cc1cc(Cl)cc(C(=O)NC(CN2CCCCC2)C2CC2)c1NC(=O)c1cc(Cn2cc(Cl)c(C(F)(F)C(F)(F)F)n2)nn1-c1ncccc1Cl` (centres unmarked) [I-1-214], the logP was 2.77.

The molecule `CCN(CC)CC(C)NC(=O)c1cc(Cl)cc(C)c1NC(=O)c1cc(Cn2cc(Cl)c(C(F)(F)C(F)(F)F)n2)nn1-c1ncccc1Cl` (centres unmarked) [I-1-215] yielded a logP of 2.62.

As for `Cc1cc(F)cc(C(=O)NC(C)C[S+](C)[O-])c1NC(=O)c1cc(Cn2cc(Cl)c(C(F)(F)C(F)(F)F)n2)nn1-c1ncccc1Cl` (centres unmarked) [I-1-216], the logP was 3.03.

For the molecule `Cc1cc(F)cc(C(=O)NC(C)C)c1NC(=O)c1cc(Cn2cc(C(F)(F)C(F)(F)F)c(C(F)(F)C(F)(F)F)n2)nn1-c1ncccc1Cl` [I-1-217], the logP was 4.47.

`Cc1cc(F)cc(C(=O)NC(C)C)c1NC(=O)c1cc(Cn2nc(C(F)(F)F)nc2C(F)(F)F)nn1-c1ncccc1Cl` [I-1-218] came in with a logP of 3.55.

On to `CNC(=O)c1cc(F)cc(C)c1NC(=O)c1cc(Cn2nc(C(F)(F)F)nc2C(F)(F)F)nn1-c1ncccc1Cl` [I-1-219], for which the logP was determined as 3.12.

`CNC(=O)c1cc(F)cc(C)c1NC(=O)c1cc(Cn2cc(C(F)(F)C(F)(F)F)c(C(F)(F)C(F)(F)F)n2)nn1-c1ncccc1Cl` [I-1-220] came in with a logP of 4.06.

Molecule `CNC(=O)c1cc(F)cc(C)c1NC(=O)c1cc(Cn2nc(C(F)(F)F)cc2C(F)(F)F)nn1-c1ncccc1Cl` [I-1-221] showed a lipophilicity (logP) of 3.32.

Take `CNC(=O)c1cc(F)cc(C)c1NC(=O)c1cc(Cn2ccc(C(F)(F)F)n2)nn1-c1ncccc1Cl` [I-1-222]: the logP was found to be 2.58.

In turn, `CNC(=O)c1cc(F)cc(C)c1NC(=O)c1cc(Cn2cc(Cl)c(C(F)(F)C(F)(F)F)n2)nn1-c1ncccc1Cl` [I-1-223] displayed a logP of 3.47.

On to `Cc1cc(F)cc(C(=O)NC(C)C)c1NC(=O)c1cc(Cn2cc(Cl)c(C(F)(F)C(F)(F)F)n2)nn1-c1ncccc1Cl` [I-1-224], for which the logP is recorded as 3.89.

As for `Cc1cc(F)cc(C(=O)NC(C)C)c1NC(=O)c1cc(Cn2nc(C(F)(F)F)cc2C(F)(F)F)nn1-c1ncccc1Cl` [I-1-225], the logP is on record as 3.77.

As for `Cc1cc(F)cc(C(=O)NC(C)C)c1NC(=O)c1cc(Cn2ccc(C(F)(F)F)n2)nn1-c1ncccc1Cl` [I-1-226], the logP was 3.00.

Consider `CNC(=O)c1cc(I)cc(C)c1NC(=O)c1cc(Cn2nc(C(F)(F)F)cc2C(F)(F)F)nn1-c1ncccc1Cl` [I-1-227], for which the logP is 3.87.

Molecule `CCNC(=O)c1cc(I)cc(C)c1NC(=O)c1cc(Cn2nc(C(F)(F)F)cc2C(F)(F)F)nn1-c1ncccc1Cl` [I-1-228] came in with a logP of 4.06.

In turn, `CCCNC(=O)c1cc(I)cc(C)c1NC(=O)c1cc(Cn2nc(C(F)(F)F)cc2C(F)(F)F)nn1-c1ncccc1Cl` [I-1-229] had a logP of 4.33.

In turn, `Cc1cc(I)cc(C(=O)NC(C)C)c1NC(=O)c1cc(Cn2nc(C(F)(F)F)cc2C(F)(F)F)nn1-c1ncccc1Cl` [I-1-230] returned a logP of 4.29.

The values are drawn from patent publication US8101550B2, “Anthranilic acid diamide derivative with hetero-aromatic and hetero-cyclic substituents” (Bayer Cropscience AG, priority 2006, dated 2012).
